In brackets after ≈: the same amount, converted by molar mass.
Columns and labels:
Type in all cases: functional
[1] = tested on: Mycobacterium tuberculosis; assay: Antitubercular activity against Mycobacterium tuberculosis H37Rv ATCC 27294 after 5 days by micro plate alamar blue assay; conditions: H37Rv ATCC 27294, 120 h
[2] = tested on: Mycobacterium tuberculosis; assay: Antitubercular activity against Mycobacterium tuberculosis H37Rv ATCC 27294 assessed as ratio of compound or streptomycin MIC to MIC for compound in presence of streptomycin after 5 days by micro plate alamar blue assay
[3] = tested on: Mycobacterium tuberculosis; assay: Antitubercular activity against Mycobacterium tuberculosis H37Rv ATCC 27294 assessed as ratio of compound or pyrazinamide MIC to MIC for compound in presence of pyrazinamide after 5 days by micro plate alamar blue assay
[4] = tested on: Mycobacterium tuberculosis; assay: Antitubercular activity against Mycobacterium tuberculosis H37Rv ATCC 27294 assessed as ratio of compound or rifampicin MIC to MIC for compound in presence of rifampicin after 5 days by micro plate alamar blue assay
[5] = tested on: Mycobacterium tuberculosis; assay: Antitubercular activity against Mycobacterium tuberculosis H37Rv ATCC 27294 assessed as ratio of compound or ciprofloxacin MIC to MIC for compound in presence of ciprofloxacin after 5 days by micro plate alamar blue assay

Row | SMILES | MIC [1] [µg/mL] | also measured
1 | COc1cc(CCC(=O)CC(C)=O)cc(OC)c1OC(C)=O | 100 (≈ 324 µM) | 
2 | COc1cc(/C=C/C(=O)CC(C)=O)cc(OC)c1OC(C)=O | > 100 | 
3 | CC(=O)CC(=O)/C=C/c1ccc(O)cc1 | 25 (≈ 122 µM) | Ratio [2]: 0.125; Ratio [3]: 0.25; Ratio [4]: 0.062; Ratio [5]: 0.062
4 | CO[C@H]1/C=C/O[C@@]2(C)Oc3c(C)c(O)c4c(O)c(c(/C=N/N5CCN(C)CC5)c(O)c4c3C2=O)NC(=O)/C(C)=C\C=C\[C@H](C)[C@H](O)[C@@H](C)[C@@H](O)[C@@H](C)[C@H](OC(C)=O)[C@@H]1C [RIFAMPIN] | 1.6 (≈ 1.94 µM) | 
5 | COc1cc(/C=C/C(=O)CC(C)=O)ccc1O | 25 (≈ 107 µM) | 
6 | COc1ccc(/C=C/C(=O)CC(C)=O)c(OC)c1OC | 100 (≈ 359 µM) | 
7 | COc1ccc(CCC(=O)CC(C)=O)cc1 | 25 (≈ 113 µM) | 
8 | CC(=O)CC(=O)/C=C/c1ccc(O)c(O)c1 | 25 (≈ 114 µM) | 
9 | COc1ccc(CCC(=O)CC(C)=O)cc1OC | 100 (≈ 400 µM) | 
10 | COc1ccc(/C=C/C(=O)CC(C)=O)cc1 | 50 (≈ 229 µM) | 
11 | O=C(O)c1cn(C2CC2)c2cc(N3CCNCC3)c(F)cc2c1=O [CIPROFLOXACIN] | 3.12 (≈ 9.43 µM) | 
12 | CC(=O)CC(=O)CCc1ccc(O)cc1 | 1.6 (≈ 7.76 µM) | Ratio [2]: 0.25; Ratio [3]: 0.25; Ratio [4]: 0.062; Ratio [5]: 0.031
13 | CC(=O)CC(=O)/C=C/c1ccc(OC(C)=O)cc1 | 100 (≈ 406 µM) | 
14 | COc1cc(/C=C/C(=O)CC(C)=O)ccc1OC(C)=O | > 100 | 
15 | COc1cc(/C=C/C(=O)CC(=O)/C=C/c2ccc(O)c(OC)c2)ccc1O [CURCUMIN] | > 100 | 
16 | COc1cc(OC)c(/C=C/C(=O)CC(C)=O)c(OC)c1 | 100 (≈ 359 µM) | 
17 | CC[C@@H](CO)NCCN[C@@H](CC)CO [ETHAMBUTOL] | 1.6 (≈ 7.83 µM) | 
18 | COc1ccc(/C=C/C(=O)CC(C)=O)cc1OC | 100 (≈ 403 µM) | 
19 | COc1cc(CCC(=O)CC(C)=O)cc(OC)c1O | 12.5 (≈ 46.9 µM) | 
20 | NC(=O)c1cnccn1 [PYRAZINAMIDE] | 3.12 (≈ 25.4 µM) | 
21 | COc1cc(/C=C/C(=O)CC(C)=O)cc(OC)c1O | 50 (≈ 189 µM) | 
22 | CC(=O)CC(=O)CCc1ccc(O)c(O)c1 | 3.12 (≈ 14.1 µM) | 
23 | NNC(=O)c1ccncc1 [ISONIAZID] | 0.8 (≈ 5.83 µM) | 
24 | C=C/C(C)=C/[C@@]1(C)SC(=O)C(C)=C1O [THIOLACTOMYCIN] | 12.5 (≈ 59.4 µM) | 
25 | CN[C@@H]1[C@H](O[C@H]2[C@H](O[C@H]3[C@H](O)[C@@H](O)[C@H](N=C(N)N)[C@@H](O)[C@@H]3N=C(N)N)O[C@@H](C)[C@]2(O)C=O)O[C@@H](CO)[C@H](O)[C@H]1O [STREPTOMYCIN] | 6.25 (≈ 10.7 µM) | 
26 | COc1cc(CCC(=O)CC(C)=O)ccc1O | 6.25 (≈ 26.5 µM) | 
27 | COc1cc(/C=C/C(=O)CC(C)=O)cc(OC)c1OC | 50 (≈ 180 µM) | 
28 | COc1ccc(CCC(=O)CC(C)=O)c(OC)c1OC | > 100 | 

— ChEMBL document CHEMBL3870343, “Synthesis, screening and docking analysis of hispolon analogs as potential antitubercular agents” (2017)
